Consider 2 molecules from PMC3919030 (Journal of molecular biology, 2013).

What all share (assay): size exclusion chromatography
Type in all cases: binding

The target of assay [1] is SsoVps4 (Saccharolobus solfataricus, UniProt Q97ZJ7, E206Q). The following applies: 2 mM MgCl2, pH 7.4, 4 °C, Walker B mutant.
Assay [2] addresses T1, SsoVps4 (Saccharolobus solfataricus, UniProt Q97ZJ7).
T1 sequence (Q97ZJ7 1-372): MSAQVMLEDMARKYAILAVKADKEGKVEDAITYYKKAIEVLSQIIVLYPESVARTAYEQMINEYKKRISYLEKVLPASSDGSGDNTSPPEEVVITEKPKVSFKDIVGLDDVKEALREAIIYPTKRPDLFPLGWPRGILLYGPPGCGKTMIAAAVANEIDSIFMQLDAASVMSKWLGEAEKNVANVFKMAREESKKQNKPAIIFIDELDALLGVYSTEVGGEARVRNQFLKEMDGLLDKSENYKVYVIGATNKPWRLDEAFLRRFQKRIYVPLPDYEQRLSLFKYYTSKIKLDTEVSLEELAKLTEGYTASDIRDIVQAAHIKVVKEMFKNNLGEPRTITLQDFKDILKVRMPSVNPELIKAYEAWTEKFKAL
The following applies: 2 mM MgCl2, pH 7.4, 4 °C; 1 mM ADP.

The target of assay [3] is T2, Vps4p (Saccharomyces cerevisiae, UniProt P52917, E233Q).
T2 sequence (P52917 1-437 E233Q): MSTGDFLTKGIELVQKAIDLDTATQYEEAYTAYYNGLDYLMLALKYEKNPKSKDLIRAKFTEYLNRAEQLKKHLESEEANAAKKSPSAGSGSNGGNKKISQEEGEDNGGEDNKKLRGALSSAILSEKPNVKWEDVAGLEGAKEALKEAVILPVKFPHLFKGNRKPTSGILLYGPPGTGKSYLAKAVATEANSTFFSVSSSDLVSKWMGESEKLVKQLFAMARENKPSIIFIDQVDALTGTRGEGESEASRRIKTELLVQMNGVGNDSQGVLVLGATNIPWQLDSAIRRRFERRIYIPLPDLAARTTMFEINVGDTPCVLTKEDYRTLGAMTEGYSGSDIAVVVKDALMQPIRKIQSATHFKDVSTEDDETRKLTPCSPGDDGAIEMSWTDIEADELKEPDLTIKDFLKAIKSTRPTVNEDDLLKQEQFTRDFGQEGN
The following applies: 2 mM MgCl2, pH 7.4, 4 °C; 1 mM ATP; Walker B mutant.

In the case of `Nc1ncnc2c1ncn2[C@@H]1O[C@H](COP(=O)(O)OP(=O)(O)O)[C@@H](O)[C@H]1O` [ADP], the “size exclusion chromatography (nucleotide-induced shift of oligomer)” value in assay [1] (1 mM ADP) was “both wild type and E206Q SsoVps4 eluted as lower molecular weight complexes”; in assay [2], “both proteins migrated slightly more rapidly when bound to ADP than ATP”.
Consider `Nc1ncnc2c1ncn2[C@@H]1O[C@H](COP(=O)(O)OP(=O)(O)OP(=O)(O)O)[C@@H](O)[C@H]1O` [ATP], for which, in assay [1] (1 mM ATP), the “size exclusion chromatography (nucleotide-induced shift of oligomer)” value was “both wild type and E206Q SsoVps4 eluted as lower molecular weight complexes”. Besides, the “size exclusion chromatography (nucleotide-bound oligomer)” value in assay [3] is reported as “ATP-bound Vps4p(E233Q) migrated more rapidly than the wild type protein”.
